The values below come from patent publication US20260166113A1, “COMPOSITIONS AND METHODS FOR TREATING RENAL CANCER” (The Regents of the University of Michigan, priority 2022, published 2026).

Assay [1] concerns normal kidney HK-2 cell line. Briefly: In vitro drug treatment and growth inhibition assessment (AlamarBlue cell viability). The format is cell-based. The conditions noted are these: HK-2 normal kidney control; 1, 5, 25 μM; treatment 7 days. As to the method:
(§1) The ccRCC cell line Caki-1 and a control cell line HK-2 were maintained in Dulbecco's Modified Eagle Medium/Nutrient Mixture F-12 (DMEM/F-12) culture medium (Gibco-11320033) supplemented with 10% FBS (Sigma, F-9665) and 1% Pen Strep (Gibco, 10,000 U/mL-15140122). All cell lines were seeded at 50,000 cells/well in duplicates in 24-well plates at day 0 and were treated with either UCHL1 inhibitor (CAS 668467-91-2-Calbiochem, Sigma Aldrich-662086-10 MG) or GLUL inhibitor (L-Methionine sulfoximine, Sigma Aldrich-M5379-500 MG) upon reaching 50-60% confluency at day 3 in culture. For both UCH-L1inhibitor or GLUL inhibitor treatment, the working concentrations were used at 1 μM, 5 μM, and 25 μM. Treatment was maintained in culture for a total of 7 days and growth inhibition assessment was performed using AlamarBlueTM Cell Viability Reagent (Invitrogen-DAL1025) at a ratio of 1:10 for 4 hours according to the manufacturer's protocol. Plots and IC50 concentrations were produced in Prism GraphPad (version 9.2.0) by plotting the percent growth inhibition on the y-axis and the Log (concentration) on the x-axis. The corresponding IC50 was extracted from the nonlinear regression curve fitting analysis using Prism GraphPad. Cells treated with only a growth medium without any drugs were used as negative controls.

The next assay deals with skrc42.EV. The conditions noted are these: FIG. 21G. The protocol: as §1
Assay [2] has as its system 5 RCC cell lines (786-0, 769-P, A-498, Caki-1, Caki-2). Put plainly: Kinase inhibition, DIA-MS phosphoproteome of treated RCC cell lines. It counts as cell-based. The conditions noted are these: treated at calculated IC50 for 1.5 hours; for phosphorylation of signaling-related downstream substrates: DIA-MS. As to the method:
For in vitro experiments assessing the impact of select kinase inhibition on renal cancer cell models (786-0, 769-P, A-498, Caki-1, and Caki-2), the kinase inhibitors, Adaversotib, Everolimus, Sapanisterib, Gefitinib, and Trametinib were dissolved in dimethyl sulfoxide (DMSO) and subjected to sonication in a water bath at room temperature. Following an assessment of individual cell line growth rates to enable calculation of half maximal inhibitory concentration (IC50), cells were seeded in triplicate at concentrations of either 1,000 cells/well (786-0, 769-P, A-498, Caki-2) or 10,000 cells/well (Caki-1). Post-24 hour seeding, cells were subjected to kinase inhibitors at final concentrations of 1 nm, 10 nM, 50 nM, 100 nM, 500 nM, […], with non-treated cells and DMSO treated cells included as controls. Cell growth was measured on day 1 (kinase inhibitor treatment), day 4, and day 6 using the colorimetric CellTiter 96® Aqueous One Cell Proliferation Solution Assay (MTS) following the manufacturer's instructions. IC50 for each cell line in response to single kinase inhibitor exposure was determined by plotting inhibitor concentration against percent activity relative to DMSO-treated controls and calculating the x-intercept of the linear logarithmic trend line. For phosphoproteomic characterization of renal cell models treated with individual kinase inhibitors, six treatment conditions were devised—control, Adaversotib treatment, Everolimus treatment, Sapanisterib treatment, Gefitinib treatment, and Trametinib treatment—and cells were seeded at ˜5E6 cells/15 cm plate and allowed to reach ˜80% confluency. 30 minutes prior to kinase inhibitor treatment, fresh media was exchanged. Cells were then treated with kinase inhibitors at calculated IC50 values for 1.5 hours. Media was removed and cells were three times with a volume of ice-cold PBS. Cells were scraped using 1.5 mL of ice-cold PBS, transferred to Eppendorf tubes, and spun at 3,000×g for 5 minutes at 4° C. A volume of lysis buffer (8 M urea, 75 mM NaCl, 50 mM Tris, pH 8.0, 1 mM EDTA, […] aprotinin, […] leupeptin, 1 mM PMSF, 10 mM NaF, Phosphatase Inhibitor Cocktail 2 and Phosphatase Inhibitor Cocktail 3 [1:100 dilution], and 20 mM PUGNAc) was added and cells lysed. Subsequent sample preparation and ESI-LC-MS/MS analysis for global proteomic and phosphoproteomic characterization for DIA analysis were performed as described for tissue samples.
Analysis of the DIA data from the kinase inhibitor study (whole proteome and phosphopeptide enriched data) was performed as described above. For each data type, the libraries were built from the corresponding 30 DIA runs (6 treatments x 5 cell lines) supplemented with 8 or 9 fractionated DDA files for whole proteome and phosphopeptide-enriched samples, respectively. The resulting whole proteome spectral library contained 8882 proteins and 173932 precursors; the phosphopeptide enriched sample library contained 7841 proteins and 101491 precursors (including non-phosphorylated proteins and peptides). After DIA-NN quantification, the final quantification table for the phosphopeptide-enriched dataset contained quantification information for 46577 phosphorylated peptides forms, representing 22161 peptide sequences from 5154 proteins. The whole proteome dataset table contained quantification for 7654 genes.

In assay [3] the test system is Akt signaling pathway in 786-O cells. Put plainly: Western blot analysis of Akt signaling. It counts as cell-based. The note with it: FIG. 18L. As to the method:
(§2) 786-O cells were maintained in Gibco RPMI-1640 supplemented with 10% FBS. CAS 668467-91-2 (UCHL-1 inhibitor) was purchased from Sigma-Aldrich (L4170) and its impact on cell viability was evaluated. Briefly, 2000 cells were seeded on white flat bottom 96 well plates and were treated with increasing concentrations of the inhibitor for a week. CellTiter-Glo Luminescent Cell Viability Assay (Promega) was used to assess cell viability and IC-50 was calculated using a graph pad. Impact of UCHL-1 inhibitor on cell morphology was evaluated using IncuCyte ZOOM assay. For western blot analysis, cell lysates were harvested from control and UCHL-1 treated 786-O cells. Following protein quantification, lysates were resolved in NuPAGE Bis-Tris Protein Gel (ThermoFisher Scientific), transferred on to nitrocellulose membranes, blocked with 5% milk, and incubated overnight with UCHL-1 antibody (HPA005993, Sigma-Aldrich). Following day, membranes were washed with TBST buffer, incubated with HRP-conjugated secondary antibodies, washed, and imaged using Odyssey Fc imager (LiCOR Biosciences).

For assay [4], the system named is 786-O renal cancer cells. Put plainly: Cell morphology by IncuCyte ZOOM assay. It counts as cell-based. The note with it: 30 μM, 24 hr, FIG. 18K. The protocol: as §2
In the next assay the test system is ccRCC cell line Caki-1. Briefly: In vitro drug treatment and growth inhibition assessment (AlamarBlue cell viability). The format is cell-based. The conditions noted are these: 1, 5, 25 μM, treatment 7 days, FIG. 18J. The protocol: as §1
Assay [5] concerns 786-O renal cancer cells. Briefly: CellTiter-Glo Luminescent Cell Viability Assay. It counts as cell-based. The conditions noted are these: increasing concentrations for a week, FIG. 18J. As to the method:
as §2

In assay [6] the test system is metastatic papillary RCC cell line ACHN1. Briefly: Cell viability by CellTiter-Glo assay. It counts as cell-based. The note with it: 120 hrs incubation; for effect on cell viability: FIG. 23D. The protocol: (§3) The cell viability was determined by CellTiter-Glo assays (Promega). Cells were seeded in 96-well plates (3000 cells per well) in respective culture medium. After 24 hrs incubation, a serial dilution of compounds was added into plates with six replications for each dose. After 120 hrs incubation, the CellTiter-Glo assays were performed based on the manufacturer's instruction to analyze cell proliferation rates. The bioluminescence signal was acquired by the Infinite M1000 Pro plate reader (Tecan). The data were analyzed by GraphPad Prism software (GraphPad Software).

In assay [7] the test system is neuroblastoma cell line NB1 (NB-1). Briefly: Cell viability by CellTiter-Glo assay. The format is cell-based. The protocol: as §3
For another assay, the system named is metastatic RCC. The note with it: everolimus versus sunitinib; literature ref 85; cited from earlier work.

SMILES strings stand for the structures. “Also recorded” adds a separate entry of the source.

As to `CS(=N)(=O)CC[C@H](N)C(=O)O` (stereo partly drawn) [L-Methionine sulfoximine], the “sensitivity of cell viability to treatment” value in assay [1] is listed as “not sensitive to the treatment”. In addition, the “response of cell viability to anti-GLUL treatment” value in the assay on skrc42.EV is “responded to the anti-GLUL treatment”.

For `C=CCn1c(=O)c2cnc(Nc3ccc(N4CCN(C)CC4)cc3)nc2n1-c1cccc(C(C)(C)O)n1` [AZD-1775], in assay [2], the “response among the five kinase inhibitors (phosphorylation of downstream targeted substrates)” value is on record as “showed better responses” and the “phosphorylation of signaling-related downstream substrates” value is listed as “reduced CDK1 phosphorylation levels in all five cell lines”.

With `CC(=O)ON=C1C(=O)N(Cc2cc(Cl)ccc2Cl)c2ccc(Cl)cc21` [CAS 668467-91-2], in [3], the “activation of the Akt signaling pathway” value is given as “suppressed activation of the Akt signaling pathway in a dose-dependent manner”. In the assay on 786-O renal cancer cells [4], the cell morphology result was “altered morphology being elongated and stressed”. In assay [1], the “sensitivity of cell viability to treatment” value was “resistant to the treatment”. In addition, the “inhibition of cell viability” value in the assay on ccRCC cell line Caki-1 and in the assay with 786-O renal cancer cells [5] was “dose-dependent inhibition of cell viability” in each case. For the same molecule, the IC50 in [6] (FIG. 23D middle) amounted to 0.65 µM; in assay [7] (neuroblastoma cell line NB1), 1.6 µM. In addition, the “effect on cell viability” value in assay [6] (listed as UCHL1 inhibitor) is “dramatic effects; also recorded: dramatic decrease in cell viability”; in assay [7] (NB-1, FIG. 23D right), “dramatic effects”.

Take `CO[C@H]1C[C@@H]2CC[C@@H](C)[C@@](O)(O2)C(=O)C(=O)N2CCCC[C@H]2C(=O)O[C@H]([C@H](C)C[C@@H]2CC[C@@H](OCCO)[C@H](OC)C2)CC(=O)[C@H](C)/C=C(\C)[C@@H](O)[C@@H](OC)C(=O)[C@H](C)C[C@H](C)/C=C/C=C/C=C/1C` [everolimus]: in [2], the “phosphorylation of signaling-related downstream substrates” value is given as “minimal impact”. Moreover, the “therapeutic value / response in metastatic RCC” value in the assay with metastatic RCC is “relatively poor response”.

For the molecule `COc1cc2ncnc(Nc3ccc(F)c(Cl)c3)c2cc1OCCCN1CCOCC1` [gefitinib], the “phosphorylation of signaling-related downstream substrates” value in assay [2] is “minimal impact”.

Consider `C#CCN(C)Cc1ccccc1` [pargyline], for which the “effect on cell viability” value in assay [6] was “no effect on cell viability; also recorded: did not affect”.

In the case of `CC(C)n1nc(-c2ccc3oc(N)nc3c2)c2c(N)ncnc21` [TAK-228], in assay [2], the “response among the five kinase inhibitors (phosphorylation of downstream targeted substrates)” value is on record as “showed better responses”; the “phosphorylation of signaling-related downstream substrates” value is “reduced phosphorylation of the mTOR complex component, AKT1S1, and its downstream phospho-substrate target, EIF4EBP1”.
